According to US9034624B2, “Process for the synthesis of conjugates of glycosaminoglycanes (GAG) with biologically active molecules, polymeric conjugates and relative uses thereof” (FIDIA FARMACEUTICI S.P.A., priority 2009, dated 2015):

Tests used:
[1] = cited from earlier work
[2] = glucose levels in blood, streptozocin-induced diabetes type I model; type: in vivo, rat; details: for effect on glucose level in the blood: diabetic rats (streptozocin 70 mg/Kg), conjugate subcutaneous
Experimental: 3.00 g of the aldehyde derivative of HA (activated intermediate) according to Example 1 are dissolved at a concentration of 10 mg/ml in an acid environment by the presence of phosphoric acid at a temperature of 60° C. for 2 hours. 4×10^−5 moles of insulin, 4×10^−1 moles of cyanoborohydride are added to the hydrolyzed product previously cooled and the pH is regulated to 6.0. After 24 h of reaction, the adduct is purified and analyzed via dimensional exclusion chromatography; the relative chromatogram is visible in FIG. 8. The activity in vivo of the conjugate is evaluated on a model of induced diabetes type I in a rat after administration of streptozocin at a dose of 70 mg/Kg.
The HA-Insulin conjugate is administered subcutaneously at a dose of 5 or 20 μg of equivalent insulin. The biological activity of the conjugate is tested through the determination of the glucose levels in the blood of animals, measured by means of commercial kits (OneTouch® II, LifeScan, Johnson & Johnson), The control consists of healthy rats (group 1) and rats with induced diabetes treated with insulin (group 2). The results are illustrated in FIG. 9.

[3] = system: cyclic 2′,3′-cytidine monophosphate (2′,3′-CMC); experiment: residual enzymatic activity of RNAse A, free or bound to HA (absorption increase at 287 nm); type: biochemical; details: hydrolysis of 2′,3′-CMC, absorption at 287 nm
Experimental: 1.00 g of the aldehyde derivative of HA according to Example 1 are dissolved at a concentration of 8 mg/ml in an acid environment by the presence of phosphoric acid at a temperature of 50° C. for 2 hours. The pH is regulated to 6.0 and 2×10^−5 moles of RNAse A and 2×10^−1 moles of cyanoborohydride are added to the hydrolyzed product previously cooled. At this pH the reaction takes place specifically at the N-terminal end of the protein. After 24 h of reaction, the adduct is purified by dialysis against water and then freeze-dried. The corresponding GPC chromatogram registered under the conditions described in Example 14 can be found in FIG. 7. This type of conjugate is optimally suitable for measuring in vitro the residual activity of the enzyme, using a specific kit based on the evaluation of the absorption increase at 287 nm with time, determined by hydrolysis of the specific synthetic substrate cyclic 2′,3′-cytidine monophosphate (2′,3′-CMC).
A comparison of the residual activity of the enzyme, free or bound to HA, produces the following results: […]

## Calcitonin
[1]
  absorption half-life: 10 to 15 min
  elimination half-life: 50 to 80 min

## HA-Insulin: hyaluronic acid aldehyde derivative conjugated to insulin
[2]; 5 or 20 μg equivalent insulin
  effect on glucose level in the blood: exerted more slowly, but has a considerably prolonged duration with time
[2]; diabetic rats, subcutaneous
  effectiveness relative to the conjugated drug (insulin): doubling the effectiveness
[2]; diabetic rats, subcutaneous, 5 or 20 μg equivalent insulin
  time span to bring glucose to a lower level than the group treated with insulin alone: ≤ 5 h
[2]; diabetic rats, subcutaneous, duration of the experiment
  duration for which the glucose lowering effect is maintained: 24 h

## insulin: free insulin, control treatment of diabetic rats [reference compound]
[2]; 5 or 20 μg equivalent insulin
  effect on glucose level in the blood: sudden decrease in the glucose level in the blood, which however returns to high values in a relatively rapid time scale

B1: RNAsi A: free enzyme RNAse A (protein, UniProt P61823 27-150, looked up)
Ribonuclease pancreatic: KETAAAKFERQHMDSSTSAASSSNYCNQMMKSRNLTKDRCKPVNTFVHESLADVQAVCSQKNVACKNGQTNCYQSYSTMSITDCRETGSSKYPNCAYKTTQANKHIIVACEGNPYVPVHFDASV
[3]
  % Relative enzymatic activity: 100%

B2: HA-Ac-RNAsi A: hyaluronic acid aldehyde derivative conjugated to RNAse A at the N-terminal end (conjugate, UniProt P61823 27-150, looked up)
Ribonuclease pancreatic: KETAAAKFERQHMDSSTSAASSSNYCNQMMKSRNLTKDRCKPVNTFVHESLADVQAVCSQKNVACKNGQTNCYQSYSTMSITDCRETGSSKYPNCAYKTTQANKHIIVACEGNPYVPVHFDASV
modifications: hyaluronic acid aldehyde conjugate
notes: hyaluronic acid aldehyde derivative conjugated to RNAse A at the N-terminal end
[3]
  % Relative enzymatic activity: 95.23%
